The assay addresses Beta-3 Adrenergic Receptor (Homo sapiens (Human), UniProt P13945). In words: Homogeneous Time-Resolved Fluorescence (HTRF) cAMP antagonist assay, IC50 determination. In kind it is cell-based. Conditions: CHO-K1 cells stably expressing recombinant receptor, isoproterenol at EC90. In a few lines: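 CHO-K1 cells stably expressing receptor, 1500 cells/well, preincubated briefly with 10-point 5-fold compound series (top final typically 10 or 100 μM) in PBS with 1 mM IBMX, then challenged with isoproterenol at EC90 for 1 h at room temperature. cAMP read by HTRF against on-plate standard curve; IC50 from dose-response.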
In general terms: In TR-FRET formats the signal depends on donor and acceptor labels being close together.

Chain of Beta-3 Adrenergic Receptor (P13945 whole entry, species assumed): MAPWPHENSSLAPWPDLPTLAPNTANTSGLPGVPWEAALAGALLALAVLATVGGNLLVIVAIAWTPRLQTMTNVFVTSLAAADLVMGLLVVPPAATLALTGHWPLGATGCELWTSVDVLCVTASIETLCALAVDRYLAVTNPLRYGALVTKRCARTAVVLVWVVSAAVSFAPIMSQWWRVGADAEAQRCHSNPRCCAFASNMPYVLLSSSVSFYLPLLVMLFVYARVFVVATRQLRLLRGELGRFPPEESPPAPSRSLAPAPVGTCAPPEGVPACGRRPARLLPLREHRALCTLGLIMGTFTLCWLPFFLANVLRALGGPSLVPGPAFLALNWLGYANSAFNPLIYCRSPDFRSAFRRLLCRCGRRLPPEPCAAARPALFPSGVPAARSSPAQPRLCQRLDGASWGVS

For orientation: IC50 means the concentration needed to halve the response being measured. `CNS(=O)(=O)c1cccc(OC[C@@H](O)CN[C@H]2COC3(CCN(S(=O)(=O)c4cnc5[nH]cc(C)c5c4)CC3)C2)c1` [Compound 512, 3-((S)-2-hydroxy-3-((R)-8-(3-methyl-1H-pyrrolo[2,3-b]pyridin-5-ylsulfonyl)-1-oxa-8-azaspiro[4.5]decan-3-ylamino)propoxy)-N-methylbenzenesulfonamide]: the IC50 was found to be 6.62 nM.

With `CNS(=O)(=O)c1cccc(OC[C@@H](O)CNC2COC3(CCN(S(=O)(=O)c4ccccc4-c4ccccc4)CC3)C2)c1` (stereo partly drawn) [Compound 174, 3-((2S)-3-(8-(biphenyl-2-ylsulfonyl)-1-oxa-8-azaspiro[4.5]decan-3-ylamino)-2-hydroxypropoxy)-N-methylbenzenesulfonamide], the IC50 is 125 nM.

In the case of `CNS(=O)(=O)c1cccc(OC[C@@H](O)CNC2COC3(CCN(S(=O)(=O)c4ccccc4OC(F)(F)F)CC3)C2)c1` (stereo partly drawn) [Compound 171, 3-((2S)-2-hydroxy-3-(8-(2-(trifluoromethoxy)phenylsulfonyl)-1-oxa-8-azaspiro[4.5]decan-3-ylamino)propoxy)-N-methylbenzenesulfonamide], the IC50 came to 30.7 nM.

Turning to `CNS(=O)(=O)c1cccc(OC[C@@H](O)CN[C@H]2COC3(CCN(S(=O)(=O)c4cc5c(nc4C)OCCN5C)CC3)C2)c1` [Compound 466, 3-((S)-3-((R)-8-(1,6-dimethyl-2,3-dihydro-1H-pyrido[2,3-b][1,4]oxazin-7-ylsulfonyl)-1-oxa-8-azaspiro[4.5]decan-3-ylamino)-2-hydroxypropoxy)-N-methylbenzenesulfonamide], the 50% inhibitory concentration (IC50) came out at 101 nM.

In the case of `CNS(=O)(=O)c1cccc(OC[C@@H](O)CNC2COC3(CCN(S(=O)(=O)c4cccc(-c5ccc(CC(=O)O)cc5)c4)CC3)C2)c1` (stereo partly drawn) [Compound 87, 2-(3′-(3-((S)-2-hydroxy-3-(3-(N-methylsulfamoyl)phenoxy)propylamino)-1-oxa-8-azaspiro[4.5]decan-8-ylsulfonyl)biphenyl-4-yl)acetic acid], the 50% inhibitory concentration (IC50) worked out at 66.1 nM.

With `CCN1CCOc2ccc(S(=O)(=O)N3CCC4(CC3)C[C@@H](NC[C@H](O)COc3cccc(S(=O)(=O)NC)c3)CO4)cc21` [Compound 351, 3-((S)-3-((R)-8-(4-ethyl-3,4-dihydro-2H-benzo[b][1,4]oxazin-6-ylsulfonyl)-1-oxa-8-azaspiro[4.5]decan-3-ylamino)-2-hydroxypropoxy)-N-methylbenzenesulfonamide], the IC50 was found to be 38.6 nM.

With `CCNS(=O)(=O)c1cccc(OC[C@@H](O)CNC2COC3(CCN(S(=O)(=O)c4cccc(-c5cnn(CC)c5)c4)CC3)C2)c1` (stereo partly drawn) [Compound 209, N-ethyl-3-((2S)-3-(8-(3-(1-ethyl-1H-pyrazol-4-yl)phenylsulfonyl)-1-oxa-8-azaspiro[4.5]decan-3-ylamino)-2-hydroxypropoxy)benzenesulfonamide], the IC50 is 41 nM.

In the case of `CN(C)S(=O)(=O)c1cccc(OC[C@@H](O)CNC2COC3(CCN(S(=O)(=O)c4ccc5ccccc5c4)CC3)C2)c1` (stereo partly drawn) [Compound 4, 3-((2S)-2-hydroxy-3-(8-(naphthalen-2-ylsulfonyl)-1-oxa-8-azaspiro[4.5]decan-3-ylamino)propoxy)-N,N-dimethylbenzenesulfonamide], the IC50 amounted to 11.2 nM.

As for `CNS(=O)(=O)c1cccc(OC[C@@H](O)CNC2COC3(CCN(S(=O)(=O)c4ccc(F)c(F)c4)CC3)C2)c1` (stereo partly drawn) [Compound 141, 3-((2S)-3-(8-(3,4-difluorophenylsulfonyl)-1-oxa-8-azaspiro[4.5]decan-3-ylamino)-2-hydroxypropoxy)-N-methylbenzenesulfonamide], the IC50 was 35.1 nM.

Regarding `CNS(=O)(=O)c1cccc(OC[C@@H](O)CNC2COC3(CCN(S(=O)(=O)c4cccc(Oc5ccc(C(F)(F)F)cc5)c4)CC3)C2)c1` (stereo partly drawn) [Compound 161, 3-((2S)-2-hydroxy-3-(8-(3-(4-(trifluoromethyl)phenoxy)phenylsulfonyl)-1-oxa-8-azaspiro[4.5]decan-3-ylamino)propoxy)-N-methylbenzenesulfonamide], the half-inhibitory concentration (IC50) is 83.7 nM.

As to `CNS(=O)(=O)c1cccc(OC[C@@H](O)CN[C@H]2COC3(CCN(S(=O)(=O)c4cc5c(nc4O)OCCN5C)CC3)C2)c1` [Compound 454, 3-((S)-2-hydroxy-3-((R)-8-(6-hydroxy-1-methyl-2,3-dihydro-1H-pyrido[2,3-b][1,4]oxazin-7-ylsulfonyl)-1-oxa-8-azaspiro[4.5]decan-3-ylamino)propoxy)-N-methylbenzenesulfonamide], the IC50 is 453 nM.

Turning to `NS(=O)(=O)c1cccc(OC[C@@H](O)CN[C@@H]2COC3(CCN(S(=O)(=O)c4cnc5cc[nH]c5c4)CC3)C2)c1` [Compound 563, 3-((S)-3-((S)-8-(1H-pyrrolo[3,2-b]pyridin-6-ylsulfonyl)-1-oxa-8-azaspiro[4.5]decan-3-ylamino)-2-hydroxypropoxy)benzenesulfonamide], the half-maximal inhibitory concentration (IC50) was determined as 26.4 nM.

For the compound `CNS(=O)(=O)c1cccc(OC[C@@H](O)CNC2COC3(CCN(S(=O)(=O)c4ccc(CO)cc4)CC3)C2)c1` (stereo partly drawn) [Compound 392, 3-((2S)-2-hydroxy-3-(8-(4-(hydroxymethyl)phenylsulfonyl)-1-oxa-8-azaspiro[4.5]decan-3-ylamino)propoxy)-N-methylbenzenesulfonamide], the half-inhibitory concentration (IC50) worked out at 168 nM.

Take `CNS(=O)(=O)c1cccc(OC[C@@H](O)CN[C@H]2COC3(CCN(S(=O)(=O)c4c[nH]c5cccnc45)CC3)C2)c1` [Compound 529, 3-((S)-3-((R)-8-(1H-pyrrolo[3,2-b]pyridin-3-ylsulfonyl)-1-oxa-8-azaspiro[4.5]decan-3-ylamino)-2-hydroxypropoxy)-N-methylbenzenesulfonamide]: the IC50 amounted to 124 nM.

As for `CNS(=O)(=O)c1cccc(OC[C@@H](O)CNC2COC3(CCN(S(=O)(=O)c4ccc(C(F)(F)F)cc4)CC3)C2)c1` (stereo partly drawn) [Compound 45, 3-((2S)-2-hydroxy-3-(8-(4-(trifluoromethyl)phenylsulfonyl)-1-oxa-8-azaspiro[4.5]decan-3-ylamino)propoxy)-N-methylbenzenesulfonamide], the concentration for half-maximal inhibition (IC50) was found to be 19.4 nM.

As for `CNS(=O)(=O)c1cccc(OC[C@@H](O)CN[C@@H]2COC3(CCN(S(=O)(=O)c4cccc(-c5cccnc5)c4)CC3)C2)c1` [Compound 284, 3-((S)-2-hydroxy-3-((S)-8-(3-(pyridin-3-yl)phenylsulfonyl)-1-oxa-8-azaspiro[4.5]decan-3-ylamino)propoxy)-N-methylbenzenesulfonamide], the half-inhibitory concentration (IC50) was 11.6 nM.

On to `CNS(=O)(=O)c1cccc(OC[C@@H](O)CNC2COC3(CCN(S(=O)(=O)c4ccoc4)CC3)C2)c1` (stereo partly drawn) [Compound 192, 3-((2S)-3-(8-(furan-3-ylsulfonyl)-1-oxa-8-azaspiro[4.5]decan-3-ylamino)-2-hydroxypropoxy)-N-methylbenzenesulfonamide], for which the IC50 worked out at 28.3 nM.

On to `CNS(=O)(=O)c1cccc(OC[C@@H](O)CNC2COC3(CCN(S(=O)(=O)c4cccc(-c5ccsc5)c4)CC3)C2)c1` (stereo partly drawn) [Compound 66, 3-((2S)-2-hydroxy-3-(8-(3-(thiophen-3-yl)phenylsulfonyl)-1-oxa-8-azaspiro[4.5]decan-3-ylamino)propoxy)-N-methylbenzenesulfonamide], for which the 50% inhibitory concentration (IC50) came out at 22.7 nM.

Regarding `CCC(C)(C)c1ccc(S(=O)(=O)N2CCC3(CC2)CC(NC[C@H](O)COc2cccc(S(=O)(=O)NC)c2)CO3)cc1` (stereo partly drawn) [Compound 120, 3-((2S)-2-hydroxy-3-(8-(4-tert-pentylphenylsulfonyl)-1-oxa-8-azaspiro[4.5]decan-3-ylamino)propoxy)-N-methylbenzenesulfonamide], the 50% inhibitory concentration (IC50) stood at 36.4 nM.

`C[C@@H](NS(=O)(=O)c1cccc(OC[C@@H](O)CNC2COC3(CCN(S(=O)(=O)c4ccc5ccccc5c4)CC3)C2)c1)C(C)(C)C` (stereo partly drawn) [Compound 100, N—((R)-3,3-dimethylbutan-2-yl)-3-((2S)-2-hydroxy-3-(8-(naphthalen-2-ylsulfonyl)-1-oxa-8-azaspiro[4.5]decan-3-ylamino)propoxy)benzenesulfonamide]: the IC50 worked out at 256 nM.

For `CCCc1cnc(N2CCC3(CC2)C[C@@H](NC[C@H](O)COc2cccc(S(=O)(=O)NC)c2)CO3)nc1` [Compound 579, 3-((S)-2-hydroxy-3-((R)-8-(5-propylpyrimidin-2-yl)-1-oxa-8-azaspiro[4.5]decan-3-ylamino)propoxy)-N-methylbenzenesulfonamide], the IC50 worked out at 340 nM.

As to `CNS(=O)(=O)c1cccc(OC[C@@H](O)CNC2COC3(CCN(S(=O)(=O)c4ccc(C)c(C#N)c4)CC3)C2)c1` (stereo partly drawn) [Compound 198, 3-((2S)-3-(8-(3-cyano-4-methylphenylsulfonyl)-1-oxa-8-azaspiro[4.5]decan-3-ylamino)-2-hydroxypropoxy)-N-methylbenzenesulfonamide], the IC50 was found to be 8.65 nM.

Turning to `CNS(=O)(=O)c1cccc(OC[C@@H](O)CNC2COC3(CCN(S(=O)(=O)c4cc(C(F)(F)F)ccc4Cl)CC3)C2)c1` (stereo partly drawn) [Compound 133, 3-((2S)-3-(8-(2-chloro-5-(trifluoromethyl)phenylsulfonyl)-1-oxa-8-azaspiro[4.5]decan-3-ylamino)-2-hydroxypropoxy)-N-methylbenzenesulfonamide], the half-maximal inhibitory concentration (IC50) worked out at 65.4 nM.

Consider `CNS(=O)(=O)c1cccc(OC[C@@H](O)CN[C@H]2COC3(CCN(S(=O)(=O)c4cnc5c(c4)NCCO5)CC3)C2)c1` [Compound 444, 3-((S)-3-((R)-8-(2,3-dihydro-1H-pyrido[2,3-b][1,4]oxazin-7-ylsulfonyl)-1-oxa-8-azaspiro[4.5]decan-3-ylamino)-2-hydroxypropoxy)-N-methylbenzenesulfonamide], for which the IC50 stood at 31.8 nM.

As for `CNS(=O)(=O)c1cccc(OC[C@@H](O)CN[C@@H]2COC3(CCN(S(=O)(=O)c4cc(-c5ccc(CN)cc5)ccc4OC)CC3)C2)c1` [Compound 384, 3-((S)-3-((S)-8-(4′-(aminomethyl)-4-methoxybiphenyl-3-ylsulfonyl)-1-oxa-8-azaspiro[4.5]decan-3-ylamino)-2-hydroxypropoxy)-N-methylbenzenesulfonamide], the IC50 came to 11 nM.

The record behind these values is US11987588B2, “Modulators of the beta-3 adrenergic receptor useful for the treatment or prevention of heart failure and disorders related thereto” (Arena Pharmaceuticals, Inc., priority 2017, dated 2024).
